Results on 1 compound are retold here after patent US20220023269A1, “Methods Of Treating Diabetes In Severe Insulin-Resistant Diabetic Subjects” (Balticgruppen Bio AB, priority 2018, published 2022).

The subject of assay [1] is hIAPPtg DIO mice. The assay is described as follows: Prevention of diabetes in hIAPPtg DIO mice (oral gavage, 6 w). It counts as in vivo. Conditions: 100 mg/kg/day gavage, 6 w HFD.
Assay [2] relates to obese, diabetic hIAPPtg mice. In words: Diet switch in hIAPPtg mice: HFD 9 w then test material-HFD (2 mg/g) 7 w. The class given is in vivo. Here is the method:
10-11 weeks old male hIAPPtg; CBA mice and wild type littermates were fed HFD for 9 weeks. After 9 weeks mice were either sacrificed or randomised into two groups either continuing on HFD or switched to test material-HFD (2 mg/g) for an additional 7 weeks.
(§1) Food intake was measured weekly by giving each cage 200 g pellet. After one week, the amount of pellets consumed were calculated and adjusted according to the number of animals/cage. Body weight was measured weekly. Body composition was assessed using EchoMRI.
Islets amyloid was quantification was done on pancreatic tissues isolated from hIAPPtg mice on HFD for 16 weeks (n=7 mice/n=69 islets) and hIAPPtg mice on HFD for 9 weeks then switched to test material-HFD (2 mg/g) for 7 weeks (n=5 mice/n=48 islets). Isolated pancreases was direct frozen, sectioned, and amyloid content quantified by staining with Thioflavin-S as previously described (Reference 2). For ex vivo analyses, islets were isolated by collagenase digestion of the pancreas (Reference 1) and cultured in RPMI medium 1640 (GIBCO #11879-0) supplemented with 11.1 or 22.2 mM glucose (GIBCO #A24940-01), 1% fetal bovine serum (GIBCO #10500), 50 U; μg/ml Pen/Strep (Gibco #15140-122), 10 mM Hepes (Umeå University, Laboratory medicine), 1 mM sodium pyruvate (GIBCO #11360-039) and 0.1% 2-Mercaptoethanol (Sigma #M3148). 0, 2.5, 5.0, and 10 μM test material were added from day 0 of culture. For assessing the effect of autophagy inhibition, 3-Methyladenine (3-MA, Aldrich #M9281), 5 μM, was added from day 0 of culture in combination with test material, 5 μM. The control contained DMSO 1:2000. Medium and compounds were changed every second day. After 92 hours of treatment islets were embedded, sectioned and amyloid content quantified by staining with Thioflavin-S as previously described (Reference 2). A minimum of 3 independent experiments was evaluated.

Assay [3] concerns hIAPPtg mice. The assay is described as follows: Diet switch in hIAPPtg mice: HFD 9 w then test material-HFD (0.8 mg/g) 7 w. It counts as in vivo. As to the method:
as §1
The potent effect of the test material on established diabetes and obesity in hIAPPtg mice on HFD formulated with 2 mg/g test material leaves open the possibility that the beneficial metabolic effects (FIG. 4, F-H) observed in these mice are secondary to the effects on weight and body fat. To address this issue, we therefore performed diet switch experiments on hIAPPtg mice using a lower test material-HFD concentration, where mice were fed HFD for 9 w and then either continued on HFD or switched to test material-HFD (0.8 mg/g) for 7 w.

Assay [4] concerns CBA mice on HFD. In words: Indirect calorimetry measurements. The class given is in vivo. Conditions: 11 w. Here is the method: VO2 and VCO2 rates were measured during 3 days by indirect calorimetry in TSE PhenoMaster Calorimetry metabolic cages (TSE Systems GmbH). The respiratory exchange ratio (RER) was calculated as a ratio of VCO2 produced/VO2 consumed. […] Energy expenditure (EE) was calculated as the product of the calorific value (CV) of oxygen [=3.815+(1.232×RER)] and the volume of O2 consumed, i.e. [EE=CV×VO2 (kcal/h)] and related to lean weight.

The test system of assay [5] is CBA mice on HFD. In words: In vivo lipogenesis. Conditions: 2 mg/g in HFD, 5 weeks. Here is the method: After 90 minutes 0.2-0.3 g liver were isolated and homogenised in 3 ml PBS before addition of 6 ml chloroform/methanol (2:1). Samples were mixed until phase separation no longer occurred and left at RT 30 minutes before centrifuged, 4,500 rpm, 5 minutes. The water phase was removed and 3 ml chloroform transferred to a scintillation vial and evaporated to dryness by a stream of nitrogen while standing in a 40° C. water bath. The residue was dissolved in 3 ml optiphase hisafe 3 (Perkin Elmer #1200.437) and ^3H determined for 1 minute in a Wallac 1414 counter. ^3H values were normalised to liver weight.

The test system of assay [6] is DIO mice (B6CBAF1/J). In words: Laser Doppler imaging of peripheral blood perfusion. Conditions: 40 mg/kg/day gavage, 8 w, vs vehicle. The class given is in vivo. Here is the method:
9 weeks old F1 mice were fed HFD for 8 weeks and treated with either vehicle or test material (40 mg/kg, orally once a day). Veet hair removal cream was used to remove hair from the left hind limb one day prior to blood perfusion analysis. Mice were anaesthetised using isoflurane and placed on a heating pad. Blood perfusion was scanned using a PeriScan PIM II Images and LDPIwin software (version 2.6.1) was used to analyse the images.

Setting [7] is: 0.8 mg/g in HFD, light and dark periods.

As for `O=C(Nc1nc(=O)n(Cc2ccc(Cl)cc2)s1)c1ccc(Cl)cc1` [test material, 4-chloro-N-[2-[(4-chlorophenyl)methyl]-3-oxo-1,2,4-thiadiazol-5-yl]benzamide], in assay [1], the “HOMA-IR and Matsuda index (systemic insulin resistance)” value is on record as “suppressed the development of systemic insulin resistance”; the “i.p. and oral glucose-tolerance tests” value is “prevented the development of glucose intolerance and compensatory hyperinsulinemia”. Besides, in assay [1] (vs vehicle), the “6 h fasted blood glucose” value is “averted the increase” and the “6 h fasted plasma insulin levels” value is given as “averted the increase”. In addition, in assay [2] (2 mg/g), the body fat result was “induced body weight and body fat loss”; the body weight entry was “induced body weight and body fat loss”. In addition, the “amount of islet amyloid formed” value in assay [2] (2 mg/g for 7 w, vs continued HFD) is recorded as “significantly reduced”. Also, in assay [2] (2 mg/g, 6 w after the switch), the “established hyperglycemia (fasted blood glucose)” value is “reverted”, the “established hyperinsulinemia (fasted insulin)” value is given as “reverted” and the “established insulin resistance (HOMA-IR)” value is on record as “reverted”. In assay [3] (0.8 mg/g for 7 w), the body fat entry is “did not provoke body weight or body fat loss” and the body weight result is “did not provoke body weight or body fat loss”. In assay [3] (0.8 mg/g, 6 w after the switch), the HOMA-IR entry was “significantly reduced”, the glucose levels result is “significantly reduced” and the insulin levels entry is on record as “significantly reduced”. Moreover, in assay [4] (setting [7]), the “energy expenditure (EE)” value is listed as “significantly increased” and the “oxygen consumption (VO2)” value was “significantly increased”. Also, the “respiratory exchange ratio (RER)” value in assay [4] (0.8 mg/g, day 2 light period, all 3 days dark period) is “significantly decreased”. The “reduction of hepatic DNL” value in assay [5] is approximately 45%. Moreover, the “microvascular blood flow in hind legs” value in assay [6] was “significantly increased microvascular blood flow”.
